This note sets out measurements from patent US20010031268A1, “Antigen preparations” (priority 1999, published 2001).

One assay concerns Neisseria. To be noted: no catechol inducer.
Another assay deals with E. coli. To be noted: low inoculum levels (50-1000 bacterial cells/ml).
The subject of assay [1] is Neisseria meningitidis strain B16B6. The assay is described as follows: Growth of Neisseria meningitidis culture (optical density at 600 nm) with and without norepinephrine bitartrate. In kind it is cell-based. To be noted: 100 micromolar added at 20 hours post-inoculation; MEM with NEAA, Vitox (iron) and ABS (iron chelator); OD 600 nm until 30 hours. Here is the method:
A culture of Neisseria meningitidis strain B16B6 (obtainable from the National Collection of Type Cultures, PHLS, Colindale, London, UK) was grown overnight at 37 deg C. on a GC agar plate (Oxoid) containing 2% Vitox (Oxoid). Vitox is a defined growth supplement suitable for enrichment of culture media and contains, amongst other ingredients, a source of iron.
At the end of incubation, about 20 bacterial colonies were harvested from the GC agar plate and suspended in 100 microliters of sterile phosphate-buffered saline (PBS; Gibco). The resulting bacterial suspension was then grown at 37 deg C for 4 hours on a GC agar plate containing 2% Vitox. At the end of incubation, the agar plate was flooded with 2 ml of sterile PBS and the bacterial suspension transferred into a sterile container. Optical density of the suspension was then determined at 600 nm. An optical density at 600 nm of 0.1 is equivalent to about 2×10^8 cfu/ml of Neisseria meningitidis. […]
The test medium was incubated at 37 deg C. with shaking at 180 rpm. The optical density of the culture was measured at 600 nm at 2, 4 and 20 hours post-inoculation of the media.
At 20 hours post-inoculation, the test sample was divided into halves. […] Both half-samples were then further incubated at 37 deg C., and optical density at 600 nm measured every 2 hours until 30 hours post-inoculation. […]

The subject of the next assay is Neisseria meningitidis. The assay is described as follows: SDS-PAGE protein analysis of bacteria grown with and without norepinephrine bitartrate. In kind it is cell-based. The text has this:
Samples of “test” bacteria grown as described above in MEM containing NEAA, iron chelator (ABS) and iron (Vitox) both in the presence and absence of norepinephrine bitartrate were taken. The samples were centrifuged to pellet bacteria. The bacterial pellets obtained were resuspended in 50 microliters of TE buffer (Sambrook et al: 1989, Molecular cloning: A Laboratory Manual, Cold Spring Harbour Laboratory Press, N.Y.) and 200 microliters of SDS-PAGE solubilisation buffer added (Sambrook et al: as above). The mixture was then heated at 70 deg C to solubilize proteins. Samples and appropriate molecular weight markers were then run on 10% and 12% SDS-polyacrylamide gels. The gels were then stained with Coomassie blue stain, according to a standard method, and protein bands observed.
Culture was carried out in MEM medium containing NEAA, iron (Vitox) and an iron chelator (ABS), either with norepinephrine bitartrate added to the culture (lane 1), or without norepinephrine bitartrate (lane 2). Molecular weight markers (kD) are also shown (lane M).

In the case of `O=C(O)C(NCCNC(C(=O)O)c1ccccc1O)c1ccccc1O` (stereo not drawn) [EDDA, ethylene diamine di-ortho-hydroxyphenyl-acetic acid], the “growth of Neisseria under low-iron conditions” value in the assay with Neisseria is reported as “do not reliably allow good growth”. For the same molecule, the “growth of E. coli under low iron conditions and low inoculum levels” value in the assay with E. coli is given as “nor to a lesser extent do they allow good growth”.
As for `NC[C@H](O)c1ccc(O)c(O)c1` [norepinephrine bitartrate], the “growth of a culture of Neisseria meningitidis” value in assay [1] is given as “accelerated growth”. Also, the “newly expressed or overexpressed further proteins (SDS-PAGE)” value in the assay with Neisseria meningitidis (compared with bacteria cultured without norepinephrine) is “newly expressed or overexpressed further proteins with molecular weights of about 250 kDa, about 80 kDa, and about 28 kDa”. Besides, the “proteins expressed only when grown in the presence of the inducer (SDS-PAGE, Coomassie)” value in the assay on Neisseria meningitidis (compared with bacteria grown in the absence of norepinephrine bitartrate, MEM with NEAA, Vitox, ABS) was “expressed proteins, including proteins with molecular weights of about 100 KDa and about 55 KDa”. Further, the “over-expression of protein in comparison to bacteria grown without the inducer (SDS-PAGE)” value in the assay on Neisseria meningitidis (compared with bacteria grown without norepinephrine bitartrate) is reported as “over-expression of an approximately 20 KDa protein”.
